Assays:
[1] = test system: myosin7A-positive cells (HCs) in utricular explants; assay: Effect of Notch inhibition (DAPT) on GM-damaged utricular explants, myosin7A immunoreactivity; assay type: cell-based, CD-1 mice; conditions: for number of myosin7A-positive cells: with or without 20 μM DAPT for 2 days then 5 days without, mean ± SD
Protocol: Effect of notch inhibition. To induce HC-like cells, two days after GM damage, we cultured utricular explants with 20 μM DAPT (N-[N-[(3,5-Difluoropheny)acetyl]-L-alanyl]L-phenylglycinetert-butyl: C23H26F2N2O4, Abcam) for 2 days, followed by 5 days without DAPT. DAPT is a prototypical y-secretase inhibitor. Since Notch signaling requires γ-secretase activity, DAPT is a potent inhibitor of this signaling pathway. As a control, we cultured GM-damaged utricles for 7 days without DAPT. Explants were analyzed for myosin7A immunoreactivity both as whole mounts and as tissue sections
Histochemical analysis. At the end of the culture period, explants were fixed for 15 min in 4% paraformaldehyde and permeabilized with 5% Triton X-100 in phosphate-buffered saline (PBS) after 3×PBS wash. Explants were then exposed to a blocking solution containing 10% bovine serum albumin (BSA), and then incubated with anti-myosin7A rabbit polyclonal antibodies (25-6790; Proteus Bioscience Inc., Ramona, Calif., USA; 1:500). Alexa-Fluor 568 goat anti-rabbit IgG (A-11011, Invitrogen, Calif., USA; 1:100) was used as the secondary antibody. At the same time, specimens were incubated in FITC-conjugated or Alexa-Fluor 633 phalloidin (1:100; Invitrogen) to label F-actin for 1 hr. Finally, the explants were incubated with DAPI for 15 min. Specimens were examined using a Leica TCS-SP2 laser-scanning confocal microscope (Leica Microsystems Inc., Wetzlar, Germany). Cells with phalloidin-positive surface structures were counted in randomly selected areas and averaged in each sample for each condition, using an evaluation reticule 100 μm on each side. Results from 6-7 samples were evaluated, based on initial observations of variability.

[2] = test system: HC stereociliary bundles and HC bodies of utricular maculae; assay: Gentamicin damage to HC stereociliary bundles and HC bodies in utricular macula explants; assay type: cell-based, CD-1 mice; conditions: 1mM GM for 48 hrs, utricular maculae in vitro, followed to 10 days
Source text: Dissection of vestibular maculae and tissue culture. Postnatal mice were decapitated under deep anesthesia and their temporal bones were removed. Utricula maculae were dissected from the surrounding tissue in 0.01M phosphate-buffered saline, pH 7.4. The otoconial membranes were gently removed with a fine needle. Explants of utricular sensory epithelia were placed intact on type I collagen-coated cover glasses (Iwaki, Tokyo, Japan) and maintained in 24-well culture plates (Iwaki) in Dulbecco's modified Eagle's medium (Invitrogen, Eugene, Oreg., USA), supplemented with 6 g/l glucose (Wako Pure Chemicals, Osaka, Japan) and 1.5 g/l penicillin G (Wako Pure Chemicals), at 37° C. in a humidified atmosphere of 95% air and 5% CO2 for 24 hrs.
In order to examine the toxicity of gentamicin (GM) to HC stereociliary bundles and HC bodies, we damaged explants with 1mM GM (Nakarai, Japan) for 48 hrs and then maintained the explants in culture without GM for 10 days. After fixation with 4% paraformaldehyde and histochemistry (see below), we counted stereociliary bundles and HC bodies. Bundles and HC bodies were measured using a 10×40 eyepiece reticule. Each square of the reticule was 100 μm on a side. Surviving hair bundles and HC bodies were counted in each of three randomly selected fields including both striolar and extrastriolar regions, and the values obtained were averaged. […]

Row | Compound | stereociliary bundles in DAPT-treated explants ([1]; 20 μM DAPT) | number of myosin7A-positive cells [1] | number of HC bodies after GM treatment [2] | stereociliary bundles after GM treatment [2]
1 | C[C@H](NC(=O)Cc1cc(F)cc(F)c1)C(=O)N[C@H](C(=O)OC(C)(C)C)c1ccccc1 [DAPT, N-[N-[(3,5-Difluoropheny)acetyl]-L-alanyl]L-phenylglycinetert-butyl] | remained very sparse | 38.5±8.64 /10000 μm2 | – | –
2 | gentamicin [GM] | – | 25.4±5.5 /10000 μm2 | dramatically decreased | almost entirely lost

— US20190254997A1, “METHODS FOR INDUCING STEREOCILIA ON HAIR CELLS” (The Regents of the University of California, priority 2016, published 2019)
